Measured values: patent publication US20100137344A1, “INDUCTION OF ANALGESIA IN NEUROPATHIC PAIN” (University Court of the University of Edinburgh, priority 2006, published 2010)

Experiments:
[1] = tested on: SNL model of neuropathic pain; assay: SNL spinal nerve ligation model, Hargreaves' test, topical icilin; type: in vivo; conditions: icilin 200 μM topical
Experimental: The SNL model of neuropathic pain was set up according to Kim and Chung 1992 (Pain 50: 355-363). The Hargreaves' test for thermal hyperalgesia was carried out as described above and icilin (200 μM) was applied topically to the ipsilateral (⋄) and contralateral (▪) paw. Values are shown as means±SEM. † Indicates statistically significant reversal of sensitisation ipsilateral to nerve injury (see FIG. 1). No significant drug effects were seen on reflex withdrawal responses of the contralateral limb.

dorsal horn neurons = assay: Extracellular recordings of single spinal dorsal horn neurons in CCI animals (brush-evoked firing); type: in vivo, rat; conditions: icilin 200 μM topical
Experimental: Peripheral: Recordings of saphenous (sensory) nerve were made in naïve animals (n=7) to assess the effects of topical icilin on primary afferents. In addition, recordings were carried out on animals which had undergone TRPM8 antisense or mis-sense treatment beginning 4-5 days previously. Rats were anaesthetised (with 0.6 ml 25% urethane/100 g, i.p.) and the saphenous nerve was exposed and dissected from its associated vein and artery. Further dissection under liquid paraffin enabled identification of afferent preparations comprising a small number of fibres. The conduction velocity of single identified afferent fibres was determined using bipolar electrodes and the peripheral stimulus technique^[43]. Following isolation of preparations, icilin (200 μM in water with 0.2% DMF), (−)-menthol (4 mM in 25% ethanol) resiniferatoxin (1 mM in ethanol) or vehicle alone were applied to the hindlimb receptive fields and neuronal responses recorded using the Chart programme (version 3.6). Central: Recordings of spinal dorsal horn neurons were made in CCI animals, as described previously^[39]. Following halothane induction, the jugular vein and trachea were canulated and intravenous anaesthetic delivered: α-chloralose ([…], Fisher) and urethane ([…], Sigma), with small supplementary doses of α-chloralose as required throughout the experiment. Core body temperature was maintained at 37-38° C. by means of a thermostatically controlled heated blanket. The animal was placed in a stereotaxic frame, and the thoracolumbar spinal column was supported using three pairs of swan-necked clamps. A laminectomy was performed at L2-L5, and agar (2% in saline at 37° C.) was delivered over exposed cord to increase mechanical stability. Above the recording region the agar and spinal cord dura were removed and liquid paraffin poured into the pool. Extracellular recordings were made from single multireceptive neurons in laminae I-IV through the centre barrel of a seven-barrelled glass microelectrode filled with 4M NaCl (tip-diameter […], DC resistance 5-8 MΩ). The receptive fields of hair-follicle innervated neurons on the distal hindlimb were identified by an innocuous brush stimulus^[39]. Icilin (200 μM in water with 0.2% DMF) was applied peripherally to the receptive field of individual recorded neurons, and the effect on neuronal response to a rotating brush was recorded and analysed using Spike2 programme (Version 3.2, CED). The Group III mGluR antagonist UBP 1112 (20 mM in water), pH 8.5, and control 1M NaCl, pH 8.5 were ionophoresed from the side barrels of the electrode using currents of between 20 nA and 80 nA (Neurophore BH2 ionophoresis system, Medical Systems, Great Neck, N.Y.) to measure effects on neuronal response to icilin.

For `O=C1NC(c2cccc([N+](=O)[O-])c2)=CCN1c1ccccc1O` [icilin, 1-(2′-hydroxyphenyl)-4-(3″-nitrophenyl)-1,2,3,6-tetrahydropyrimidin-2-one], the “analgesia, thermal hyperalgesia (Hargreaves' test)” value [1] was “causes analgesia”, the “brush-induced responses of contralateral neurons” value (dorsal horn neurons; contralateral, n=6) was 111.9±8.9 % of control and the brush-induced responses (dorsal horn neurons; ipsilateral to CCI, 8 neurons out of 12 affected) was 37.4±5.5%.
